Test results published in PubChem BioAssay (NCI).
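Cells were grown in 96-well plates and exposed to each compound for 48 hours at five concentrations; endpoints were interpolated linearly between bracketing concentrations, or set to the highest concentration if not reached. Definition used: TGI = concentration required for complete inhibition of growth.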

Experiments:
Assay in all cases: DTP human tumour cell line panel, 48 h
MDA-MB-435 = system: MDA-MB-435
NCI-H522 lung = system: NCI-H522 lung
OVCAR-3 ovarian = system: OVCAR-3 ovarian
UACC-62 melanoma = system: UACC-62 melanoma
SF-268 CNS = system: SF-268 CNS
NCI/ADR-RES ovarian = system: NCI/ADR-RES ovarian
XF 498 CNS = system: XF 498 CNS
SNB-75 CNS = system: SNB-75 CNS
U251 CNS = system: U251 CNS
LOX IMVI melanoma = system: LOX IMVI melanoma
HCT-15 colon = system: HCT-15 colon
KM20L2 colon = system: KM20L2 colon
OVCAR-8 ovarian = system: OVCAR-8 ovarian
COLO 205 colon = system: COLO 205 colon
SK-MEL-2 melanoma = system: SK-MEL-2 melanoma
M14 melanoma = system: M14 melanoma
PC-3 prostate = system: PC-3 prostate
UO-31 renal = system: UO-31 renal
SK-MEL-28 melanoma = system: SK-MEL-28 melanoma
SF-295 CNS = system: SF-295 CNS
A498 renal = system: A498 renal
SW-620 colon = system: SW-620 colon
HS 578T breast = system: HS 578T breast
DMS 114 small cell lung = system: DMS 114 small cell lung
786-0 renal = system: 786-0 renal
CCRF-CEM leukemia = system: CCRF-CEM leukemia
MDA-N = system: MDA-N
RPMI-8226 leukemia = system: RPMI-8226 leukemia
DU-145 prostate = system: DU-145 prostate
HCC-2998 colon = system: HCC-2998 colon
SK-MEL-5 melanoma = system: SK-MEL-5 melanoma
T-47D breast = system: T-47D breast
NCI-H226 lung = system: NCI-H226 lung
SNB-19 CNS = system: SNB-19 CNS
HCT-116 colon = system: HCT-116 colon
M19-MEL melanoma = system: M19-MEL melanoma
MDA-MB-231 breast = system: MDA-MB-231 breast
RXF 393 renal = system: RXF 393 renal
SF-539 CNS = system: SF-539 CNS
MALME-3M melanoma = system: MALME-3M melanoma
HOP-62 NSCLC = system: HOP-62 NSCLC
SK-OV-3 ovarian = system: SK-OV-3 ovarian
IGROV1 ovarian = system: IGROV1 ovarian
HL-60(TB) leukemia = system: HL-60(TB) leukemia
EKVX NSCLC = system: EKVX NSCLC
KM12 colon = system: KM12 colon
A549 NSCLC = system: A549 NSCLC
HT29 colon = system: HT29 colon
SR leukemia = system: SR leukemia
MOLT-4 leukemia = system: MOLT-4 leukemia
LXFL 529 NSCLC = system: LXFL 529 NSCLC
SNB-78 CNS = system: SNB-78 CNS
ACHN renal = system: ACHN renal
HOP-92 NSCLC = system: HOP-92 NSCLC
SN12C renal = system: SN12C renal
OVCAR-5 ovarian = system: OVCAR-5 ovarian
TK-10 renal = system: TK-10 renal
NCI-H23 lung = system: NCI-H23 lung
CAKI-1 renal = system: CAKI-1 renal
NCI-H460 lung = system: NCI-H460 lung
UACC-257 melanoma = system: UACC-257 melanoma
DLD-1 colon = system: DLD-1 colon
DMS 273 small cell lung = system: DMS 273 small cell lung
OVCAR-4 ovarian = system: OVCAR-4 ovarian
K-562 leukemia = system: K-562 leukemia

CCN(CC)CC(C)(C)C(=O)/C=C/c1ccc(/C=C/C(=O)C(C)(C)CN(CC)CC)cc1
TGI (MDA-MB-435): 2.16 µM
TGI (NCI-H522 lung): 0.194 µM
TGI (OVCAR-3 ovarian): 1.76 µM
TGI (UACC-62 melanoma): 4.89 µM
TGI (SF-268 CNS): 2.11 µM
TGI (NCI/ADR-RES ovarian): 6.59 µM
TGI (XF 498 CNS): 1.03 µM
TGI (SNB-75 CNS): 3.44 µM
TGI (U251 CNS): 1.57 µM
TGI (LOX IMVI melanoma): 1.04 µM
TGI (HCT-15 colon): 0.901 µM
TGI (KM20L2 colon): 2.51 µM
TGI (OVCAR-8 ovarian): 0.774 µM
TGI (COLO 205 colon): 1.29 µM
TGI (SK-MEL-2 melanoma): 3.32 µM
TGI (M14 melanoma): 2.46 µM
TGI (PC-3 prostate): 1.51 µM
TGI (UO-31 renal): 4.96 µM
TGI (SK-MEL-28 melanoma): 2.28 µM
TGI (SF-295 CNS): 2.54 µM
TGI (A498 renal): 3.49 µM
TGI (SW-620 colon): 0.523 µM
TGI (HS 578T breast): 4.45 µM
TGI (DMS 114 small cell lung): 0.876 µM
TGI (786-0 renal): 0.411 µM
TGI (CCRF-CEM leukemia): 0.31 µM
TGI (MDA-N): 1.66 µM
TGI (RPMI-8226 leukemia): 0.46 µM
TGI (DU-145 prostate): 5.29 µM
TGI (HCC-2998 colon): 1.56 µM
TGI (SK-MEL-5 melanoma): 3.7 µM
TGI (T-47D breast): 3.21 µM
TGI (NCI-H226 lung): 6.97 µM
TGI (SNB-19 CNS): 4.21 µM
TGI (HCT-116 colon): 0.74 µM
TGI (M19-MEL melanoma): 4.23 µM
TGI (MDA-MB-231 breast): 0.756 µM
TGI (RXF 393 renal): 0.928 µM
TGI (SF-539 CNS): 2.54 µM
TGI (MALME-3M melanoma): 2.79 µM
TGI (HOP-62 NSCLC): 5.01 µM
TGI (SK-OV-3 ovarian): 4.08 µM
TGI (IGROV1 ovarian): 7.04 µM
TGI (HL-60(TB) leukemia): 0.22 µM
TGI (EKVX NSCLC): 3.67 µM
TGI (KM12 colon): 2.16 µM
TGI (A549 NSCLC): 5.76 µM
TGI (HT29 colon): 0.534 µM
TGI (SR leukemia): 0.758 µM
TGI (MOLT-4 leukemia): 0.546 µM
TGI (LXFL 529 NSCLC): 0.417 µM
TGI (SNB-78 CNS): 4.64 µM
TGI (ACHN renal): 3.09 µM
TGI (HOP-92 NSCLC): 1.46 µM
TGI (SN12C renal): 1.06 µM
TGI (OVCAR-5 ovarian): 2.93 µM
TGI (TK-10 renal): 2.49 µM
TGI (NCI-H23 lung): 4.73 µM
TGI (CAKI-1 renal): 1.99 µM
TGI (NCI-H460 lung): 0.755 µM
TGI (UACC-257 melanoma): 4.26 µM
TGI (DLD-1 colon): 1.26 µM

Cc1c2c(ccc3ccccc32)c[n+]2ccccc12
TGI (NCI-H522 lung): 18.8 µM
TGI (OVCAR-3 ovarian): 19.3 µM
TGI (DMS 273 small cell lung): 28.5 µM
TGI (SF-268 CNS): 11.3 µM
TGI (SNB-75 CNS): 8.94 µM
TGI (U251 CNS): 13.8 µM
TGI (HCT-15 colon): > 100 µM
TGI (KM20L2 colon): 77 µM
TGI (OVCAR-8 ovarian): 60.1 µM
TGI (COLO 205 colon): 33.7 µM
TGI (SK-MEL-2 melanoma): 33.7 µM
TGI (M14 melanoma): 40.9 µM
TGI (UO-31 renal): > 100 µM
TGI (SK-MEL-28 melanoma): 31.1 µM
TGI (SF-295 CNS): 22.5 µM
TGI (SW-620 colon): > 100 µM
TGI (DMS 114 small cell lung): 19.8 µM
TGI (786-0 renal): > 100 µM
TGI (CCRF-CEM leukemia): 36.5 µM
TGI (RPMI-8226 leukemia): > 100 µM
TGI (HCC-2998 colon): 26 µM
TGI (SK-MEL-5 melanoma): 16 µM
TGI (NCI-H226 lung): 35.1 µM
TGI (SNB-19 CNS): 7.89 µM
TGI (HCT-116 colon): > 100 µM
TGI (OVCAR-4 ovarian): 28.9 µM
TGI (K-562 leukemia): 37.8 µM
TGI (SF-539 CNS): 33.2 µM
TGI (MALME-3M melanoma): 6.98 µM
TGI (HOP-62 NSCLC): 26.7 µM
TGI (HL-60(TB) leukemia): 68.5 µM
TGI (KM12 colon): 11.8 µM
TGI (A549 NSCLC): > 100 µM
TGI (HT29 colon): > 100 µM
TGI (SR leukemia): 23.3 µM
TGI (MOLT-4 leukemia): 27.9 µM
TGI (LXFL 529 NSCLC): 28.3 µM
TGI (ACHN renal): > 100 µM
TGI (HOP-92 NSCLC): 90.8 µM
TGI (OVCAR-5 ovarian): > 100 µM
TGI (TK-10 renal): > 100 µM
TGI (NCI-H23 lung): 22.5 µM
TGI (CAKI-1 renal): > 100 µM
TGI (UACC-257 melanoma): 26.5 µM
TGI (DLD-1 colon): > 100 µM
